According to PubChem BioAssay AID248 (DTP/NCI, 2004):
Toxic doses and inconclusive results are not listed. Rule as the data show it: active = T/C of 150% or more; inactive = T/C below 125%.

System: L1210 leukemia ip in BDF1 mice, survival T/C
Assay: NCI In Vivo Anticancer Drug Screen. Data for tumor model L1210 Leukemia (intraperitoneal) in B6D2F1 (BDF1) mice
Details: endpoint: mean survival time, higher = longer survival
Method in brief: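 Read-out is survival time, reported as the treated-group measurement over the vehicle-control measurement.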

[1] = dose: 100.0 mg/kg/injection, schedule: Q04DX003 (ip), vehicle: Klucel (hydroxypropylcellulose) (HPC)
[2] = dose: 200.0 mg/kg/injection, schedule: Q04DX003 (ip), vehicle: Klucel (hydroxypropylcellulose) (HPC)
[3] = dose: 400.0 mg/kg/injection, schedule: Q04DX003 (ip), vehicle: Klucel (hydroxypropylcellulose) (HPC)

Measured: T/C

Oc1c(Cl)cc(C(c2cc(Cl)c(O)c(Cl)c2)c2ccccn2)cc1Cl
inactive: [1] 100 % of control | [2] 104 % of control | [3] 93 % of control

Cc1ccc(CSc2ccc([N+](=O)[O-])cc2[N+](=O)[O-])cc1
inactive: dose: 100.0 mg/kg/injection, schedule: Q01DX001 (ip), vehicle: carboxymethylcellulose (CMC) 113 % of control | dose: 200.0 mg/kg/injection, schedule: Q01DX001 (ip), vehicle: carboxymethylcellulose (CMC) 98 % of control | dose: 400.0 mg/kg/injection, schedule: Q01DX001 (ip), vehicle: carboxymethylcellulose (CMC) 92 % of control

CCC(C#N)(CC)c1ccccc1
inactive: dose: 50.0 mg/kg/injection, schedule: Q01DX001 (ip), vehicle: saline 113 % of control | dose: 100.0 mg/kg/injection, schedule: Q01DX001 (ip), vehicle: saline 107 % of control | dose: 200.0 mg/kg/injection, schedule: Q01DX001 (ip), vehicle: saline 89 % of control | dose: 400.0 mg/kg/injection, schedule: Q01DX001 (ip), vehicle: saline 101 % of control

CC(=O)NNS(=O)(=O)c1ccccc1
inactive: dose: 100.0 mg/kg/injection, schedule: Q01DX001 (ip), vehicle: Klucel (hydroxypropylcellulose) (HPC) 102 % of control | dose: 100.0 mg/kg/injection, schedule: Q01DX009 (ip), vehicle: Klucel (hydroxypropylcellulose) (HPC) 106 % of control | dose: 200.0 mg/kg/injection, schedule: Q01DX001 (ip), vehicle: Klucel (hydroxypropylcellulose) (HPC) 100 % of control | dose: 200.0 mg/kg/injection, schedule: Q01DX009 (ip), vehicle: Klucel (hydroxypropylcellulose) (HPC) 95 % of control | dose: 400.0 mg/kg/injection, schedule: Q01DX001 (ip), vehicle: Klucel (hydroxypropylcellulose) (HPC) 105 % of control

NC(N)=N/N=C/N1CCCCC1
inactive: dose: 60.0 mg/kg/injection, schedule: Q01DX Z (oral), vehicle: methylcellulose (MC) 90 % of control | dose: 120.0 mg/kg/injection, schedule: Q01DX Z (oral), vehicle: methylcellulose (MC) 100 % of control | dose: 240.0 mg/kg/injection, schedule: Q01DX Z (ip), vehicle: methylcellulose (MC) 110 % of control | dose: 240.0 mg/kg/injection, schedule: Q01DX Z (oral), vehicle: methylcellulose (MC) 89 % of control | dose: 300.0 mg/kg/injection, schedule: Q01DX Z (oral), vehicle: methylcellulose (MC) 100 % of control | dose: 360.0 mg/kg/injection, schedule: Q01DX Z (ip), vehicle: methylcellulose (MC) 103 % of control | dose: 400.0 mg/kg/injection, schedule: Q01DX Z (oral), vehicle: methylcellulose (MC) 105 % of control | dose: 480.0 mg/kg/injection, schedule: Q01DX Z (ip), vehicle: methylcellulose (MC) 107 % of control | dose: 480.0 mg/kg/injection, schedule: Q01DX Z (oral), vehicle: methylcellulose (MC) 101 % of control | dose: 720.0 mg/kg/injection, schedule: Q01DX Z (ip), vehicle: methylcellulose (MC) 95 % of control

CCCCC=C(C1CCCCC1)C1CCCCC1
inactive: dose: 75.0 mg/kg/injection, schedule: Q01DX001 (ip), vehicle: saline 104 % of control | dose: 75.0 mg/kg/injection, schedule: Q04DX003 (ip), vehicle: saline 92 % of control | dose: 150.0 mg/kg/injection, schedule: Q01DX001 (ip), vehicle: saline 93 % of control | dose: 150.0 mg/kg/injection, schedule: Q04DX003 (ip), vehicle: saline 101 % of control | dose: 300.0 mg/kg/injection, schedule: Q01DX001 (ip), vehicle: saline 91 % of control | dose: 300.0 mg/kg/injection, schedule: Q04DX003 (ip), vehicle: saline 100 % of control

N#CC(c1ccccc1)N1CCCCC1 (stereo not drawn)
inactive: [1] 101 % of control | [2] 107 % of control | [3] 91 % of control

OCC#CC#CCO
inactive: dose: 25.0 mg/kg/injection, schedule: Q01DX009 (ip), vehicle: saline 95 % of control | dose: 50.0 mg/kg/injection, schedule: Q01DX009 (ip), vehicle: saline 115 % of control | dose: 100.0 mg/kg/injection, schedule: Q01DX009 (ip), vehicle: saline 105 % of control | dose: 100.0 mg/kg/injection, schedule: Q04DX003 (ip), vehicle: saline 103 % of control
